The text below walks through data of US20100124782A1, “Composition For Repairing Defect In Skin Or Gingival Soft Tissue And Method Of Culturing Autologous Fibroblasts” (Applied Cell Biotechnologies, Inc., priority 2007, published 2010).

The test system of the assay is fibroblasts separated from skin tissue. The assay can be described thus: Collagen concentration in fibroblast culture supernatant (human collagen ELISA quantitative kit). The conditions noted are these: vitamin C (0.01-1 mM) added to the culture medium of skin fibroblasts; unit not given. It counts as cell-based. As for the experimental part:
Culture of the fibroblasts separated from skin tissue was carried out according to a well-known method (R. I. Freshney, Culture of Animal Cells: A MANUAL OF BASIC TECHNIQUE (Wiley-Liss, Inc. 2000)). Specifically, the fibroblasts separated from skin tissue were being subcultured, subsequently followed by expansion culture, to be end up to a few T-225 flasks in the end. Vitamin C in the range of 0.01-1 mM was added to the culture medium three days before the end of culture (scheduled day of injection). Furthermore, the culture medium was replaced with a 2-5% self-serum addition culture medium with no vitamin C added. The cultured fibroblasts were exfoliated from a culture vessel with a dispersion liquid with no EDTA solution or enzyme, and the cells were separated from the dispersion liquid by centrifugation. Then, washing in a physiological salt solution were performed more than three times. The collagen concentration contained in the culture supernatant of the fibroblasts cultured in the culture medium with vitamin C added of Example 1 and the culture supernatant with no vitamin C added by the human collagen ELISA quantitative kit (AC Biotechnologies).
A general note: An ELISA detects its analyte on a solid surface through an enzyme-linked reagent.

Turning to `O=C1O[C@H]([C@@H](O)CO)C(O)=C1O` [vitamin C], the “collagen concentration contained in the culture supernatant” value is on record as 11.3.
